What was measured:
Format in all cases: in vivo
Setaria viridis = assay: Test Example 5: herbicidal effect by foliage application, plastic box (symbol G); conditions: 320 g/ha, 3 weeks after application
Procedure, shortened: (§1)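 Greenhouse foliar test: seedlings at 14 days, grown 25° C. to 30° C. in sterilized diluvial soil; compound applied as an aqueous dilution of an emulsion; response read 3 weeks after spraying.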

Amaranthus retroflexus = assay: Test Example 4: herbicidal effect by soil treatment (symbol N); conditions: for Herbicidal effect grade, N: Amaranthus retroflexus: application herbicide amount 320 g/ha; for N: Amaranthus retroflexus, herbicidal effect grade: 320 g/ha
Procedure, shortened: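 Seeds were sown in sterilized diluvial soil, covered with about 1.5 cm of soil, and the soil surface was sprayed with a water-diluted emulsion of the compound at a predetermined rate. Plants grew in a greenhouse at 25° C. to 30° C.; effects were scored visually 3 weeks after application.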

Lolium multiflorum Lam. = assay: Test Example 5: herbicidal effect by foliage application, plastic box (symbol K); conditions: 320 g/ha, 3 weeks after application
Procedure, shortened: as §1

Galium spurium = assay: Test Example 5: herbicidal effect by foliage application, plastic box (symbol Q); conditions: 320 g/ha, 3 weeks after application
Procedure, shortened: as §1

rapeseed [1] = assay: Test Example 4: effect on crop by soil treatment (symbol g); conditions: for Effect on crop grade, g: rapeseed: application herbicide amount 320 g/ha; for g: rapeseed, effect grade on crop: 320 g/ha
Procedure, shortened: (§2)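 Soil-treatment setup: crop and weed seeds were spot-sown into sterilized diluvial soil, then buried beneath approximately 1.5 cm of it, and the boxes were housed in a 25–30° C. greenhouse.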

rapeseed [2] = assay: Test Example 5: effect on crop by foliage application, plastic box (symbol g); conditions: 320 g/ha, 3 weeks after application
Procedure, shortened: (§3)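 Box culture: sterile diluvial soil, seeds spot-sown, ~1.5 cm cover, raised under glass at 25–30° C.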

Cyperus difformis = assay: Test Example 3: herbicidal effect by foliage application, Wagner pot (symbol E); conditions: application herbicide amount 320 g/ha; for E herbicidal effect grade: Table 24
Procedure, shortened: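 Post-emergence, paddy-type test: seedlings 14 d old in shallow-flooded (0.1–0.5 cm) alluvial soil, 25–30 °C greenhouse. Emulsion diluted to target rate, sprayed on leaves. Read-out: visual effect on each species at 3 weeks, per set criteria.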

beet [3] = assay: Test Example 5: effect on crop by foliage application, plastic box (symbol f); conditions: 320 g/ha, 3 weeks after application
Procedure, shortened: as §3

wheat = assay: Test Example 5: effect on crop by foliage application, plastic box (symbol e); conditions: 320 g/ha, 3 weeks after application
Procedure, shortened: as §3

beet [4] = assay: Test Example 4: effect on crop by soil treatment (symbol f); conditions: for Effect on crop grade, f: beet: application herbicide amount 320 g/ha; for f: beet, effect grade on crop: 320 g/ha
Procedure, shortened: as §2

corn = assay: Test Example 4: effect on crop by soil treatment (symbol c); conditions: for Effect on crop grade, c: corn: application herbicide amount 320 g/ha; for c: corn, effect grade on crop: 320 g/ha
Procedure, shortened: as §2

Apera spica-venti = assay: Test Example 5: herbicidal effect by foliage application, plastic box (symbol L); conditions: 320 g/ha, 3 weeks after application
Procedure, shortened: as §1

Scirpus juncoides = assay: Test Example 1: herbicidal activity, application before weed generation in submerged conditions (symbol B); conditions: application herbicide amount 320 g/ha
Procedure, shortened: (§4)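 Greenhouse growth at 25–30 °C lasted 3 weeks after treatment, when each weed was graded 0–5 by herbicidal ratio. Treatment was a diluted emulsion applied to the water surface of 4 cm-submerged alluvial soil on the sowing day.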

Monochoria vaginalis = assay: Test Example 1: herbicidal activity, application before weed generation in submerged conditions (symbol C); conditions: application herbicide amount 320 g/ha
Procedure, shortened: as §4

| SMILES | G: Setaria viridis, herbicidal effect grade (Setaria viridis) | Herbicidal effect grade, N: Amaranthus retroflexus (Amaranthus retroflexus) | K: Lolium multiflorum Lam., herbicidal effect grade (Lolium multiflorum Lam.) | Q: Galium spurium, herbicidal effect grade (Galium spurium) | Effect on crop grade, g: rapeseed (rapeseed [1]) | g: rapeseed, effect on crop grade (rapeseed [2]) | E herbicidal effect grade (Cyperus difformis) | f: beet, effect on crop grade (beet [3]) | G: Setaria viridis, herbicidal effect (criteria 0-5) (Setaria viridis) | N: Amaranthus retroflexus, herbicidal effect grade (Amaranthus retroflexus) | K: Lolium multiflorum Lam., herbicidal effect (criteria 0-5) (Lolium multiflorum Lam.) | Q: Galium spurium, herbicidal effect (criteria 0-5) (Galium spurium) | g: rapeseed, effect grade on crop (rapeseed [1]) | g: rapeseed, effect on crop (criteria 0-5) (rapeseed [2]) | f: beet, effect on crop (criteria 0-5) (beet [3]) | e: wheat, effect on crop (criteria 0-5) (wheat) | f: beet, effect grade on crop (beet [4]) | c: corn, effect grade on crop (corn) | L: Apera spica-venti, herbicidal effect (criteria 0-5) (Apera spica-venti) | Herbicidal effect grade, B: Scirpus juncoides (Scirpus juncoides) | also measured |
| --- | --- | --- | --- | --- | --- | --- | --- | --- | --- | --- | --- | --- | --- | --- | --- | --- | --- | --- | --- | --- | --- |
| CC(CC1CC(OC(=O)N2CCOCC2)=C(c2c(C)cc(-c3ccc(Cl)cc3)cc2C)C1=O)=NOCC(F)(F)F (mixture of isomers) [9-025] | 4 (Herbicidal ratio of 70% or higher and lower than 90%) | 0 (Herbicidal ratio of 5% or lower (almost no effect)) | 0 (Herbicidal ratio of 5% or lower (almost no effect)) | 0 (Herbicidal ratio of 5% or lower (almost no effect)) | 0 (Herbicidal ratio of 5% or lower (almost no effect)) | 0 (Herbicidal ratio of 5% or lower (almost no effect)) | 0 (Herbicidal ratio of 5% or lower (almost no effect)) | 0 (Herbicidal ratio of 5% or lower (almost no effect)) | – | – | – | – | – | – | – | – | – | – | – | – | e: wheat, effect on crop grade (wheat): 0 (Herbicidal ratio of 5% or lower (almost no effect)); Effect on crop grade, f: beet (beet [4]): 0 (Herbicidal ratio of 5% or lower (almost no effect)); Effect on crop grade, c: corn (corn): 0 (Herbicidal ratio of 5% or lower (almost no effect)); L: Apera spica-venti, herbicidal effect grade (Apera spica-venti): 0 (Herbicidal ratio of 5% or lower (almost no effect)); B (Scirpus juncoides) herbicidal effect grade (Scirpus juncoides): 1 (Herbicidal ratio of 5% or higher and lower than 20%); C (Monochoria vaginalis) herbicidal effect grade (Monochoria vaginalis): 1 (Herbicidal ratio of 5% or higher and lower than 20%) |
| CC(CC1CC(OC(=O)COc2ccccc2)=C(c2c(C)cc(-c3ccc(Cl)cc3)cc2C)C1=O)=NOCC(F)(F)F (mixture of isomers) [9-027] | 5 (Herbicidal ratio of 90% or more (almost completely withered)) | 3 (Herbicidal ratio of 40% or higher and lower than 70%) | 5 (Herbicidal ratio of 90% or more (almost completely withered)) | 3 (Herbicidal ratio of 40% or higher and lower than 70%) | 1 (Herbicidal ratio of 5% or higher and lower than 20%) | 4 (Herbicidal ratio of 70% or higher and lower than 90%) | 5 (Herbicidal ratio of 90% or more (almost completely withered)) | 0 (Herbicidal ratio of 5% or lower (almost no effect)) | – | – | – | – | – | – | – | – | – | – | – | – | e: wheat, effect on crop grade (wheat): 4 (Herbicidal ratio of 70% or higher and lower than 90%); Effect on crop grade, f: beet (beet [4]): 0 (Herbicidal ratio of 5% or lower (almost no effect)); Effect on crop grade, c: corn (corn): 0 (Herbicidal ratio of 5% or lower (almost no effect)); L: Apera spica-venti, herbicidal effect grade (Apera spica-venti): 5 (Herbicidal ratio of 90% or more (almost completely withered)); B (Scirpus juncoides) herbicidal effect grade (Scirpus juncoides): 2 (Herbicidal ratio of 20% or higher and lower than 40%); C (Monochoria vaginalis) herbicidal effect grade (Monochoria vaginalis): 1 (Herbicidal ratio of 5% or higher and lower than 20%) |
| CC(CC1CC(O)=C(c2c(C)cc(C)cc2C)C1=O)=NOCC#N (stereo not shown) [1-102] | – | – | – | – | – | – | – | – | 5 (Herbicidal ratio of 90% or more (almost completely withered)) | 0 (Herbicidal ratio of 5% or lower (almost no effect)) | 5 (Herbicidal ratio of 90% or more (almost completely withered)) | 0 (Herbicidal ratio of 5% or lower (almost no effect)) | 0 (Herbicidal ratio of 5% or lower (almost no effect)) | 2 (Herbicidal ratio of 20% or higher and lower than 40%) | 0 (Herbicidal ratio of 5% or lower (almost no effect)) | 4 (Herbicidal ratio of 70% or higher and lower than 90%) | 0 (Herbicidal ratio of 5% or lower (almost no effect)) | 0 (Herbicidal ratio of 5% or lower (almost no effect)) | 5 (Herbicidal ratio of 90% or more (almost completely withered)) | 3 (Herbicidal ratio of 40% or higher and lower than 70%) | herbicidal effect on E, grade 0-5 (Cyperus difformis): 5 (Herbicidal ratio of 90% or more (almost completely withered)) |
| CC(CC1CC(O)=C(c2c(C)cc(C)cc2C)C1=O)=NOC1CCCC1 (stereo not shown) [1-106] | – | – | – | – | – | – | – | – | 5 (Herbicidal ratio of 90% or more (almost completely withered)) | 0 (Herbicidal ratio of 5% or lower (almost no effect)) | 5 (Herbicidal ratio of 90% or more (almost completely withered)) | 0 (Herbicidal ratio of 5% or lower (almost no effect)) | 3 (Herbicidal ratio of 40% or higher and lower than 70%) | 3 (Herbicidal ratio of 40% or higher and lower than 70%) | 0 (Herbicidal ratio of 5% or lower (almost no effect)) | 4 (Herbicidal ratio of 70% or higher and lower than 90%) | 0 (Herbicidal ratio of 5% or lower (almost no effect)) | 1 (Herbicidal ratio of 5% or higher and lower than 20%) | 5 (Herbicidal ratio of 90% or more (almost completely withered)) | 3 (Herbicidal ratio of 40% or higher and lower than 70%) | herbicidal effect on E, grade 0-5 (Cyperus difformis): 5 (Herbicidal ratio of 90% or more (almost completely withered)) |
| CCC(Oc1ccc2ncc(Br)cc2c1)C(=O)OC1=C(c2c(C)cc(C)cc2C)C(=O)C(CC(C)=NOC)C1 (stereo not shown) [1-140] | – | – | – | – | – | – | – | – | 5 (Herbicidal ratio of 90% or more (almost completely withered)) | 5 (Herbicidal ratio of 90% or more (almost completely withered)) | 5 (Herbicidal ratio of 90% or more (almost completely withered)) | 2 (Herbicidal ratio of 20% or higher and lower than 40%) | 4 (Herbicidal ratio of 70% or higher and lower than 90%) | 5 (Herbicidal ratio of 90% or more (almost completely withered)) | 3 (Herbicidal ratio of 40% or higher and lower than 70%) | 5 (Herbicidal ratio of 90% or more (almost completely withered)) | 0 (Herbicidal ratio of 5% or lower (almost no effect)) | 4 (Herbicidal ratio of 70% or higher and lower than 90%) | 5 (Herbicidal ratio of 90% or more (almost completely withered)) | 5 (Herbicidal ratio of 90% or more (almost completely withered)) | Herbicidal effect grade, C: Monochoria vaginalis (Monochoria vaginalis): 1 (Herbicidal ratio of 5% or higher and lower than 20%) |
